Test results: publication PMC9102668, “Highly Cytotoxic Osmium(II) Compounds and Their Ruthenium(II) Analogues Targeting Ovarian Carcinoma Cell Lines and Evading Cisplatin Resistance Mechanisms” (International Journal of Molecular Sciences, 2022)

Legend:
Format in all cases: cell-based
A2780 cells = test: Cell death rate, PI staining of live cells (FACS); conditions: A2780 and SKOV3 cells, 20 µM and 30 µM, 48 h
Experimental: For cell death rate analysis, live cells were stained with PI immediately after 48 h treatment. […] Furthermore, resistant cells show much lower Cisplatin-induced cell death rates (Figure 7). […] In A2780 cells, both compounds trigger similar cell death rates in parental and Cisplatin-resistant cells. Cisplatin-resistant SKOV3 are much more sensitive to both ruthenium(II) complexes than the parental counterpart, with a median of 3.3-fold higher sensitivity.
To examine cell cycle distribution and cell death rates, 30,000 cells were seeded in 12 well plates. After attaching for 24 h cells were treated with Cisplatin, Ru3 and Ru14 for 48 h at various concentrations for cell cycle and cell death analyses. For cell death analysis, immediately after treatment cells were stained with Propidium Iodid (PI) (1 µg/mL) on ice and the number of dead cells was measured using BD Canto II. For cell cycle distribution, cells recovered for 24 h after treatment. Afterwards, cells were fixed in ice-cold, 50% EtOH for 24 h at −20 °C. For DNA staining, fixed cells were incubated in PBS with 0.05% Triton-X, 0.1 µg/mL RNaseA and 50 µg/mL PI for 1 h at 4 °C in dark. DNA content was measured using BD Canto II.

histone γH2AX-foci = test: γH2AX foci analysis (DNA damage); conditions: IC50 concentration, 24h incubation
Description: ROS production may also lead to endoplasmatic reticulum stress-induced apoptosis. In general, many ruthenium(II) complexes with different ligands induce intracellular ROS [94, 95, 96, 97, 98, 99]. Moreover, the cytotoxic activity of Os(II) compounds can be inhibited by vitamin E co-treatment pointing to the contribution of ROS [88]. In addition to mitochondrial dysfunction, Ru(II) complexes may affect glycolysis or topoisomerase I/II, thus inducing necroptosis. Ru(II) compounds with modified pyrithione ligands were recently described to overcome platinum resistance in ovarian cancer cells by inducing cytostatic G1 arrest, TrxR inhibition, and cell membrane damage. […] Future studies may identify the specific target proteins enabling molecular docking studies and specific refinement of the organo-metal compound structure. Altogether, presented compounds may use some of these alternative modes of action as well, as we see efficient cell death but no cell cycle arrest induction by Ru3/Ru14. Furthermore, the ruthenium(II) core atom might be responsible for this effect because of the lack of anticancer behaviour of the ligand L14 (Supplementary Figure S8). To further confirm that Ru compounds use another mechanism of action, DNA damage analyses were conducted for Ru3 and Ru14 (Figure 8). […]

MCF10A = test: IC50 on non-cancerous cell cultures; conditions: non-cancerous breast epithelial cell line
SKOV3 = test: MTT assay (CellTiter96), cytotoxic activity; conditions: 48 h incubation
A549 = test: MTT assay (CellTiter96), cytotoxic activity; conditions: lung carcinoma cell line, 48 h incubation
A2780 = test: MTT assay (CellTiter96), cytotoxic activity; conditions: 48 h incubation
SKOV3cis = test: MTT assay (CellTiter96), cytotoxic activity
A2780cis = test: MTT assay (CellTiter96), cytotoxic activity

[(η^6-p-cymene)Ru(1-(3-ethoxyphenyl)-3-(methylthio)-3-thioxo-prop-1-en-1-olate-O,S)] [Ru14]
capacity to induce cell death in vitro (A2780 cells): high capacity to induce cell death | γH2AX-foci induction (histone γH2AX-foci): less γH2AX-foci as Cisplatin | IC50 (MCF10A): 16.7 µM | IC50 (SKOV3): 3.5 µM | IC50 (A549): 2.7 µM | IC50 (A2780): 1.9 µM | IC50 (SKOV3cis; Cisplatin resistant SKOV3, MTT assay, 48 h incubation): 5.1 µM | RF SKOV3 (resistance factor) (SKOV3cis; SKOV3cis vs SKOV3): 1.5 | RF A2780 (resistance factor) (A2780cis; A2780cis vs A2780): 1.5 | IC50 (A2780cis; Cisplatin resistant A2780, MTT assay, 48 h incubation): 2.9 µM
